Test results reported in ChEMBL document CHEMBL1126190, “3-[4-[1-(6-Fluorobenzo[b]thiophen-3-yl)-4-piperazinyl]butyl]- 2,5,5-trimethyl-4-thiazolidinone: a new atypical antipsychotic agent for the treatment of schizophrenia” (J Med Chem, 1992).
Blank lines part the entries; values can stand above or below the molecule they belong to.

Columns and labels:
Rattus norvegicus [1] = experiment: Compound was evaluated for pole-climb avoidance (escape failures) in rat after peroral administration.; type: functional; details: po
Rattus norvegicus [2] = experiment: Compound was evaluated for inhibition of apomorphine-induced stereotypy behavior in rats after intraperitoneal administration.; type: functional; details: ip
Rattus norvegicus [3] = experiment: Compound was evaluated for pole-climb avoidance in rat after peroral administration.; type: functional; details: po
Rattus norvegicus [4] = experiment: Compound was evaluated for intracranial self-stimulation in rat after intraperitoneal administration.; type: functional; details: ip
[5] = molecular target: Serotonin 2 (5-HT2) receptor (Rattus norvegicus, UniProt P30994+P08909+P14842); experiment: Compound was evaluated for in vitro binding affinity towards serotonin 5-hydroxytryptamine 2 receptor in rat cortex using [3H]- spiperone as radioligand
Mus musculus [6] = experiment: Compound was evaluated for inhibition of apomorphine-induced climbing in mouse after peroral administration.; type: functional; details: po
D(1A) dopamine receptor = D(1A) dopamine receptor (Rattus norvegicus, UniProt P18901); experiment: Compound was evaluated for in vitro binding affinity towards Dopamine receptor D1 in striatum using [3H]- SCH 23390 as radioligand; type: tissue-based
[7] = molecular target: T1, 5-hydroxytryptamine receptor 1A (Rattus norvegicus, UniProt P19327); experiment: Compound was evaluated for in vitro binding affinity towards serotonin 5-hydroxytryptamine 1A receptor receptor in rat hippocampus using [3H]8-OH-DPAT as radioligand; type: tissue-based
T1 sequence (P19327 whole entry): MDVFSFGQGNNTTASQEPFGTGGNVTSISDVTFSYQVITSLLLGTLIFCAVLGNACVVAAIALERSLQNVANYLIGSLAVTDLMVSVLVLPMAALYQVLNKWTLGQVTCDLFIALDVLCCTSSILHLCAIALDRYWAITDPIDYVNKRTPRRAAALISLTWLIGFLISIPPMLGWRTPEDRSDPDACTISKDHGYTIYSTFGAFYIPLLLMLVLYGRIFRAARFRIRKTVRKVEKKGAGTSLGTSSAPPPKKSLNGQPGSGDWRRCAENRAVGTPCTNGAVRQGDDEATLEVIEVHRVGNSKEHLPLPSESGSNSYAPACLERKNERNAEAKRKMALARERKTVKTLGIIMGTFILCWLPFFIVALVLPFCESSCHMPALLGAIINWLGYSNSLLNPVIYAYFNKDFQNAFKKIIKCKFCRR

Mus musculus [8] = experiment: Compound was evaluated for inhibition of apomorphine-induced climbing in mouse after intraperitoneal administration.; type: functional; details: ip

Sequence of D(1A) dopamine receptor (P18901 whole entry): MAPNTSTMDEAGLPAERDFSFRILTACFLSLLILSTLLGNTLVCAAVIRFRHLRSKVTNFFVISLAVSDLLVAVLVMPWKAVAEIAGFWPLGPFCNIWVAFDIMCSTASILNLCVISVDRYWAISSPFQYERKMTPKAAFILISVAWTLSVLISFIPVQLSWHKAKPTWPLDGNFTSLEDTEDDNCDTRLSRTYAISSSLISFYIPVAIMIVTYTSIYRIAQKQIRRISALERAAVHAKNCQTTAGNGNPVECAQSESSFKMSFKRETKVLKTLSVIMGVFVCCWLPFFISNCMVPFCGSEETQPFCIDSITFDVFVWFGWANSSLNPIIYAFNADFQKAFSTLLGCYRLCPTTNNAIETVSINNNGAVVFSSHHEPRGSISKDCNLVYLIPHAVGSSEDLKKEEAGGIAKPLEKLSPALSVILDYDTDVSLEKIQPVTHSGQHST

SMILES: CN1CCN(C2=Nc3cc(Cl)ccc3Nc3ccccc32)CC1 [CLOZAPINE]
ED50 (Rattus norvegicus [1]): 33.1 mg/kg
ED50 (Rattus norvegicus [2]): > 40 mg/kg
ED50 (Rattus norvegicus [3]): 12.7 mg/kg

SMILES: O=C(CCCN1CCC(O)(c2ccc(Cl)cc2)CC1)c1ccc(F)cc1 [HALOPERIDOL]
ED50 (Rattus norvegicus [1]): 14.1 mg/kg
ED50 (Rattus norvegicus [2]): 0.576 mg/kg
ED50 (Rattus norvegicus [4]): 0.077 mg/kg
ED50 (Rattus norvegicus [3]): 1.1 mg/kg

Ki [5]: 0.02 µM
Ki (D(1A) dopamine receptor): 2740 nM
Ki [7]: 40 nM
SMILES: CC1SC(C)(C)C(=O)N1CCCCN1CCN(c2csc3cc(F)ccc23)CC1 (stereo unspecified)
ED50 (Rattus norvegicus [1]): > 20 mg/kg
ED50 (Mus musculus [6]): 15.4 mg/kg
ED50 (Rattus norvegicus [2]): 61.4 mg/kg
ED50 (Rattus norvegicus [4]): 4.7 mg/kg
ED50 (Mus musculus [8]): 2.5 mg/kg
ED50 (Rattus norvegicus [3]): 5.46 mg/kg
